Values of other authors in patent US8442776B2, “Structure of compstatin-C3 complex and use for rational drug design” (The Trustees of the University of Pennsylvania, priority 2007, dated 2013).

Experiments:
[1] = tested on: complement system (C3 activation); conditions: read-out: inhibitory activity IC50

CC[C@H](C)[C@H](N)C(=O)N[C@H]1CSSC[C@@H](C(=O)N[C@H](C(N)=O)[C@@H](C)O)NC(=O)[C@H](CCCN=C(N)N)NC(=O)[C@H](Cc2cnc[nH]2)NC(=O)[C@H](Cc2cnc[nH]2)NC(=O)CNC(=O)[C@H](Cc2c[nH]c3ccccc23)NC(=O)[C@H](CC(=O)O)NC(=O)[C@H](CCC(N)=O)NC(=O)[C@H](C(C)C)NC(=O)[C@H](C(C)C)NC1=O [Compstatin]
IC50 [1]: 12 µM | binding to primate C3 (primate C3): binds only to primate C3
